Reference: patent US12605386B2, “Sapropterin formulation” (APR Applied Pharma Research SA, priority 2022, dated 2026)
Where two headings read alike, the source gives them in different places.

Experiments:
[1] = Visual observation of unformulated SPT solutions; type: physicochemical; settings: 100 mM solutions; yellow/orange colour developed overtime
Protocol: Stability over time of unformulated SPT solutions was initially investigated through visual observation of 100 mM solutions. The solutions were seen to be very unstable and a yellow/orange colour developed overtime, presumably due to the formation of oxidation sub-products.

[2] = Peroxide degradation of sapropterin with HPLC analysis; type: physicochemical; settings: peroxide degradation: 5 mL of 0.1% H2O2, 1.5 hours, room temperature
Protocol: A sample of sapropterin was subjected to peroxide degradation with 5 mL of 0.1% H2O2 for 1.5 hours at room temperature.
HPLC analysis of the resulting oxidative degradation of sapropterin was performed according to the procedure described below and the results are shown in Table 2.
• Column: YMC Pack ODS AQ (250×4.6) mm, […] • Buffer: potassium dihydrogen phosphate pH3.0 with orthophosphoric acid • Mobile Phase A: 100% Buffer • Mobile Phase B: acetonitrile:methanol (1:9) • Wavelength: 220 nm for Impurity A, C, D, E, G • Wavelength: 275 nm for Impurity F • Flow: 0.6 ml/min • Injection Volume: 5 μl • Column Temperature: 30° C. • Sample Compartment: 5° C. • Run Time: 45 min Preparation of Mobile Phase: • Mobile Phase A: 2.72 g of potassium dihydrogen phosphate was added to 1000 ml of water and dissolved. pH was adjusted to 3.0 using orthophosphoric acid. The solution was mixed and filtered through 0.45 μm nylon membrane filter and degassed. • Mobile Phase B: 900 ml of methanol and 100 ml of acetonitrile was dissolved, mixed, and degassed.
Preparation of 0.1N HCl: 8.5 ml of hydrochloric acid was added to 900 ml of water, diluted to 1000 ml with water, and then mixed.
Diluent: 2.72 g of potassium dihydrogen phosphate was added to 1000 ml of water and dissolved. pH was adjusted to 3.0 using orthophosphoric acid. 10 mg of ascorib acid was added, mixed, and then filtered through 0.45 μm nylon membrane filter and degassed.

[3] = HPLC analysis of sapropterin solutions in water; type: physicochemical
Protocol: Visual observations of degradation of sapropterin solutions were confirmed through HPLC analysis. The following methodology was used: Samples that were diluted to ca. 1 mM prior to analysis. HPLC Method • Column: Partisil […] SCX 250× (from […]) • Mode: isocratic • Mobile phase: KH2PO4 30 mM at pH 3.0 • Oven temperature: 30° C. • injection volume: 25 μL • flow: 1.5 mL/min (generated ca. 60 bar) • Detection: DAD 254-360 with acquisition at 254 HPLC System (VWR Hitachi) • VWR Hitachi L-2000 organizer • DAD: L2455 • Autosampler: L2200 • Pump: L2130 • Column oven: L2350 Preparation of Mobile Phase • 1) V (H2O)=500 mL • 2) m(KH2PO4)=2.04 g (MW=136.09 g/mol) • 3) To pH 3 with phosphoric acid diluted 50 fold with water (v/v) • Note: prior to dilution phosphoric acid stock was at 85% • Note2: 5-8 g of 1/50 diluted solution are required to drop pH to 3.0 Three solutions of sapropterin in water at 100 mM were submitted to HPLC analysis. Each solution was tested at a different time point one was tested when freshly prepared, one after one day and the other after 7 weeks old.

[4] = Vegetable oil suspension stability study, water extraction and HPLC; type: physicochemical; settings: oil free control; freshly prepared aqueous solutions
Protocol: A simple stability study was carried out to establish the stability potential of the formulations tested. The stability study was carried out for a month at room temperature as this would reflect the conditions under which the material would be stored.
The stability work was focused on vegetable oils. Food grade vegetable oils were tested and they were sourced from a supermarket and only opened before starting the stability work. Exploratory stability work was then carried out to establish the potential of liquid formulations for sunflower oil, olive oil, rapeseed oil and rice bran oil.
Stability was informally assessed by preparing 10% w/w sapropterin suspensions and storing at room temperature on a shelf away from direct sunlight. Individual aliquots were prepared at each time point. At each sampling point sapropterin was extracted from oil with water as set out below and the sample analysed by HPLC. Absence of degradation products was used to establish lack of oxidation. The HPLC method set out above was not validated for quantitative analysis. Instead, SPT peak size was also semi-quantitatively used to further corroborate absence of oxidation but this was carried out by simply overlaying traces (e.g. SPT peak size at day 0 vs day 7) rather than performing calibrations curves of SPT. […]
Samples were analysed at day 0, day 5, day 7, and/or day 31.

[5] = powder and tablet formulations suspended in various foods and water at 20 mg/mL (62 mM); after one hour; cited from earlier work
[6] = cited from earlier work
[7] = cited from earlier work; remark: listed apart in the source
[8] = 0.1 M phosphate buffer, pH 6.8, room temperature

Q: Which “stability over time (visual observation)” value [1] does the source give for `C[C@H](O)[C@H](O)[C@H]1CNc2nc(N)[nH]c(=O)c2N1` [Sapropterin, sapropterin] here?
A: Its value is “very unstable”.

Q: And the “Impurities (% w/w): Impurity A” value [2]?
A: The value was 0.02 % w/w.

Q: What about the “Impurities (% w/w): Impurity B” value [2] of the same compound?
A: Its value is 11.791 % w/w.

Q: What about the “Impurities (% w/w): Impurity C” value [2] of the same compound?
A: The value was 5.322 % w/w.

Q: What about the “Impurities (% w/w): Impurity D” value [2] of the same compound?
A: Its value is 0.116 % w/w.

Q: And the “Impurities (% w/w): Impurity H” value [2]?
A: The value was 0.106 % w/w.

Q: What about the “Impurities (% w/w): Unknown impurity @RRT 0.70” value [2] of the same compound?
A: Its value is 0.191 % w/w.

Q: What about the “Impurities (% w/w): Unknown impurity @RRT 0.85” value [2] of the same compound?
A: The value was 0.026 % w/w.

Q: And the “Impurities (% w/w): Unknown impurity @RRT 0.89” value [2]?
A: The value was 0.010 % w/w.

Q: And the “Impurities (% w/w): Unknown impurity @RRT 0.94” value [2]?
A: Its value is 0.108 % w/w.

Q: And the “Impurities (% w/w): Unknown impurity @RRT 1.11” value [2]?
A: Its value is 0.015 % w/w.

Q: And the “Impurities (% w/w): Unknown impurity @RRT 1.41” value [2]?
A: Its value is 0.212 % w/w.

Q: And the “Impurities (% w/w): Unknown impurity @RRT 1.54” value [2]?
A: Its value is 0.022 % w/w.

Q: And the “Impurities (% w/w): Unknown impurity @RRT 1.63” value [2]?
A: Its value is 0.010 % w/w.

Q: And the “Impurities (% w/w): Unknown impurity @RRT 1.77” value [2]?
A: Its value is 0.007 % w/w.

Q: And the “Impurities (% w/w): Unknown impurity @RRT 2.08” value [2]?
A: Its value is 0.004 % w/w.

Q: What about the “Impurities (% w/w): Unknown impurity @RRT 2.15” value [2] of the same compound?
A: The value was 0.007 % w/w.

Q: And the “Impurities (% w/w): Unknown impurity @RRT 2.24” value [2]?
A: The value was 0.006 % w/w.

Q: What about the “Impurities (% w/w): Unknown impurity @RRT 2.34” value [2] of the same compound?
A: The value was 0.095 % w/w.

Q: What about the major degradation products [2] of the same compound?
A: The major degradation products was “Impurities B and C”.

Q: And the “time after which an oxidation sub-product peak became evident” value ([3]; 1 mM solution)?
A: The value was 2 h.

Q: And the “oxidation product by HPLC” value ([3]; 100 mM in water, after 7 weeks)?
A: Its value is “showed a peak at 4.2 min attributed to oxidation sub-products”.

Q: What about the “oxidation product by HPLC” value ([3]; 100 mM in water, after one day) of the same compound?
A: Its value is “showed a peak at 4.2 min attributed to oxidation sub-products”.

Q: What about the “oxidation product by HPLC” value ([3]; 100 mM in water, freshly prepared) of the same compound?
A: Its value is “did not show any oxidation product”.

Q: What about the “reduction in the SPT peak by oxidation” value ([3]; 100 mM in water, within a period of 24 h) of the same compound?
A: The value was “not pronounced”.

Q: What about the “oxidation products by HPLC” value [4] of the same compound?
A: The value was “vestigial amounts of oxidation products”.

Q: And the sapropterin degraded [5]?
A: The sapropterin degraded was 3-7%.

Q: And the “pH of solution in water” value ([6]; 1 mM solution)?
A: Its value is 3.0.

Q: And the “pH of solution in water” value ([6]; 1 M solution)?
A: The value was 0.45.

Q: What about the solubility in water [6] of the same compound?
A: Its solubility in water is “freely soluble”.

Q: And the “degradation of solution in water” value ([7]; 0.1 mM, after 1 hour open at room temperature)?
A: Its value is “about 25%”.

Q: And the “degradation of solution in water” value ([7]; 0.1 mM, after 3 hours)?
A: The value was “more than 60%”.

Q: What about the “degradation of solution in water” value ([7]; 1 mM, after 1 hour open at room temperature) of the same compound?
A: Its value is 2%.

Q: What about the “degradation of solution in water” value ([7]; 1 mM, after 3 hours) of the same compound?
A: The value was 10%.

Q: And the half-life [7, 8]?
A: The half-life was ~16 min.

Q: What about the “time until completely destroyed” value [7, 8] of the same compound?
A: The value was 90 min.

Q: And the “stability of solutions in 0.1 N HCl” value ([7]; −20° C.)?
A: The value was “stable for several weeks”.
